How the values were obtained:
[1] = biological target: Cyclin-dependent kinase 2/cyclin E1 (Homo sapiens) (UniProt P24864+P24941); experiment: Inhibition of human recombinant full length C-terminal His6 tagged CDK2/ N-terminal GST-tagged Cyclin E expressed in baculovirus infected Sf21 insect cells using histone H1 as substrate assessed as residual activity at 1 uM pretreated for 20 mins followed by [33P]-ATP addition measured after 120 mins by radiometric hotspot kinase assay relative to control; details: time 140.0 min
[2] = biological target: T1, Serine/threonine-protein kinase Nek5 (Homo sapiens) (UniProt Q6P3R8); experiment: Inhibition of human recombinant NEK5 assessed as residual activity at 1 uM pretreated for 20 mins followed by [33P]-ATP addition measured after 120 mins by radiometric hotspot kinase assay relative to control; details: time 140.0 min
T1 sequence (whole entry): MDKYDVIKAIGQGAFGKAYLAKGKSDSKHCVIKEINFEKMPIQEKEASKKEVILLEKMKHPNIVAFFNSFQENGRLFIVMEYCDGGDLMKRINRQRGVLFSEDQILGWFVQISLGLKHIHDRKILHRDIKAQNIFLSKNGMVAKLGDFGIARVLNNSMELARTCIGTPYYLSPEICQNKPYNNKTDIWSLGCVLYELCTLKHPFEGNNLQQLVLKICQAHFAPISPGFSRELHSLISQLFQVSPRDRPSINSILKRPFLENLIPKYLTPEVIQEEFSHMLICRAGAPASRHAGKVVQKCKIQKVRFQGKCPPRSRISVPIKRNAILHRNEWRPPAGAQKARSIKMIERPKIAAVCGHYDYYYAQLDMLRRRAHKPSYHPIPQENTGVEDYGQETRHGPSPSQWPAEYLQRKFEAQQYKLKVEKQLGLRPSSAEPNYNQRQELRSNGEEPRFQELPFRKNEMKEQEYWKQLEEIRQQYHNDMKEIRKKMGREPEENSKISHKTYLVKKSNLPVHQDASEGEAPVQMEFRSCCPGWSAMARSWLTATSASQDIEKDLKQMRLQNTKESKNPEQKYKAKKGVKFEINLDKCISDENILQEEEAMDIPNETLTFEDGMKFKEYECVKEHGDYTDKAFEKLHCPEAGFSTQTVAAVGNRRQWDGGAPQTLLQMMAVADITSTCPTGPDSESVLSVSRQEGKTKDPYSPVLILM

COC(=O)c1cccc(-c2cnc3[nH]cc(-c4cccnc4)c3c2)c1
Activity [1]: 1.6% | Activity [2]: 10.4%
